Experimental data: publication PMC11221653, “Isolation and characterization of plant-derived exosome-like nanoparticles from Carica papaya L. fruit and their potential as anti-inflammatory agent” (PLOS ONE, 2024)

Key:
[1] = tested on: NO production in LPS-induced RAW 264.7 cells; assay: Nitric oxide assay (Griess reagent, nitrite); type: cell-based; details: PDENs 5, 10, 20 μg/mL or dexamethasone 1 μg/ml for 24 h, then LPS 50 ng/mL for 6 h
Method: RAW 264.7 cells were cultured in 96-well plates, with a density of 1 × 10^4 cells per well and incubated for 24 hours. Following this, they were exposed to various concentrations of PDENs (0, 5, 10, and 20 μg/ml) and dexamethasone (1 μg/ml) (Sigma-Aldrich, USA) for 24 hours. Thereafter, the cells were treated with LPS (50 ng/mL) (Sigma-Aldrich, USA) for an additional 6 hours. To measure the nitric oxide in the culture media, we utilized the Protocol from Griess Reagent Kit for Nitrite Determination (G-7921) (Thermo Fisher Scientific, USA). Briefly, 50 microliters of cell culture medium from each treatment were mixed with Griess reagent (1:1) and incubated for 15 minutes in the dark. The samples were measured at a wavelength of 540 nm using a microplate reader Bio-Rad iMark.

[2] = set-up: method as in PMID 35494787; details: concentration 17.5 μM; ref [87]; cited from earlier work

C[C@@H]1C[C@H]2[C@@H]3CCC4=CC(=O)C=C[C@]4(C)[C@@]3(F)[C@@H](O)C[C@]2(C)[C@@]1(O)C(=O)CO [dexamethasone]
NO production versus LPS-induced cells [1]: significantly reduce NO production

CC1=C(O)C(=O)C(O)CO1 (stereo not drawn) [DDMP, 2,3-dihydro-3,5-dihydroxy-6-methyl-4H-pyran-4-one]
radical scavenging activity [2]: 81.1%

Cc1cc(C(C)(C)C)c(O)c(C(C)(C)C)c1 [butylated hydroxytoluene]
radical scavenging activity [2]: 58.4%
